{
  "source": "patent US7399639B2",
  "about": "“Sensors, and methods of making and using the same” (Massachusetts Institute of Technology, priority 2003, dated 2008)",
  "origin": "cited, not measured here",
  "key": {"[1]": {"details": "reported elsewhere; cited from earlier work"}, "[2]": {"details": "reported elsewhere, cited from earlier work"}, "[3]": {"details": "reported elsewhere; cited from earlier work", "remark": "listed apart in the source"}, "[4]": {"details": "reported elsewhere; cited from earlier work", "remark": "listed apart in the source"}},
  "data": [
    {"smiles": "O=C(O)c1ccccc1-c1c2cc(Cl)c(=O)cc-2oc2c(CNc3ccccc3CN(Cc3ccccn3)Cc3ccccn3)c(O)ccc12", "note": "[Zinpyr-4]", "values": [
      {"measurement": "increase in integrated emission in response to the dual-metal buffering system", "setting": "[1]", "result": "~5", "unit": "fold"},
      {"measurement": "quantum efficiency", "setting": "[2]; metal-free", "result": 0.05},
      {"measurement": "increase in brightness upon Zn(II) binding", "setting": "[2]", "result": 6.7, "unit": "fold"},
      {"measurement": "quantum efficiency of Zn(II) complex", "setting": "[2]", "result": 0.34},
      {"measurement": "pKa of the aniline nitrogen", "setting": "[3]", "result": 7.2},
      {"measurement": "metal ion selectivity", "setting": "[4]", "result": "Zn(II) and Cd(II) selective"}
    ]}
  ]
}
